From patent US20230357292A1, “MULTI-COORDINATE GOLD-PHOSPHINE COMPOUNDS AND METHOD OF USE” (University of Kentucky Research Foundation, priority 2020, published 2023)

Legend:
[1] = 10 mM in DMSO-d6, 24 h
Description: Stock solutions comprised of a 1 mL, 20 mM solution of AuPhos-89 in DMSO-d6. The solution of L-GSH (20 mM) was sonicated for 5 minutes to dissolve the reagent in DMSO-d6. 1 mL of each solution were mixed in a 1:1 ratio to produce a final concentration of 10 mM in DMSO-d6. The solution was then analyzed by 1H NMR spectroscopy. The solution was further analyzed at different time intervals, t=1 h, 6 h, 12 h, and 24 h.

[2] = tested on: OVCAR8 (ovarian); details: OVCAR8 (ovarian), 4,000 cells/well, treated 72 h, mean ± SD (n = 3)
Description: (§1) All cell lines (OVCAR8, A2780, H460, and MDA-MB-231) were cultivated in RPMI or DMEM supplemented with 10% FBS, 1% penicillin/streptomycin, and 1% amphotericin. All cells were grown at 310K in a humidified atmosphere containing 5% CO2.
(§2) Various established human ovarian, lung, and breast cancer cell lines were seeded in 96-well plates (4000 cells/well) and were incubated with RPMI 1640 or DMEM (100 μL) supplemented with 10% FBS, 1% penicillin/streptomycin, and 1% amphotericin for 24 h and at 37° C. They were then treated with AuPhos compounds at increasing concentrations for 72 h from stock solutions following serial dilutions, in which AuPhos stock solutions were prepared in DMSO/media mixture (% v/v=20:80). Thereafter, cellular viability was assessed via the established crystal violet colorimetric assay. In brief, cells were fixed with 50 μL of a 1% glutaraldehyde solution and placed in an incubator (37° C., 5% CO2) for 1 hour. The plates were washed with water by running them under a gentle flow of tap water. The plates were air-dried, and crystal violet reagent was added to each well and allowed to incubate at room temperature for 20 min. The plates were washed with water and dried again. Methanol (200 μL/well) was added to each well, and the measurements of absorbance were subsequently performed using a Biotek Synergy H1 Plate Reader at 570 nm (peak absorbance).

[3] = tested on: H460 (lung); details: H460 (lung), 4,000 cells/well, treated 72 h, mean ± SD (n = 3)
Description: as §1, §2

[4] = tested on: A2780 (ovarian); details: A2780 (ovarian), 4,000 cells/well, treated 72 h, mean ± SD (n = 3)
Description: as §1, §2

In the case of [Cl-].[Cl][Au-]1([c]2ccccc2-c2ccccn2)[P+](c2ccccc2)(c2ccccc2)c2ccccc2[P+]1(c1ccccc1)c1ccccc1 [AuPhos-89, (2-phenylpyridine)[1,2-Bis(diphenylphosphino)benzene]gold(III) Dichloride], the “stability with L-GSH, proton resonances” value [1] is reported as “minimally altered”, the IC50 [2] is reported as 1160 ± 40 nM and the IC50 [3] is reported as 720 ± 160 nM. For the same molecule, the IC50 [4] was 340 ± 70 nM.
